Data set [1] deals with NMDA receptor. Conditions: clinical / human use; cited from earlier work.
Data set [2] concerns MES-induced convulsions in mice. As to the kind of experiment: Anticonvulsive activity: maximal electroshock (MES) test. In kind it is in vivo. The note with it: i.p., Table 8, 30 min. How it is done: (§1) NMR female mice (18-28 g) housed 5 per cage were used for the maximal electroshock (MES) and motor impairment tests. […] All compounds were dissolved in 0.9% saline.
(§2) The MES test was performed together with tests for myorelaxant action (traction reflex) and motor coordination (rotarod). For the traction reflex test mice were placed with their forepaws on a horizontal rod and were required to place all 4 paws on the wire within 10 seconds. To test ataxia (motor coordination) mice were placed on rotarod (5 rpm) and were required to remain on the rod for 1 minute. […] These tests were followed by MES (100 Hz, 0.5 second shock duration, 50 mA shock intensity, 0.9 ms impulse duration, Ugo Basile) applied through corneal electrodes. The presence of tonic convulsions was scored (tonic extension of hind paws with minimum angle to the body of 90°). The aim was to obtain ED50 s for all parameters scored (anticonvulsive activity and motor side effects) with use of the Litchfield Wilcoxon test for quantal dose responses. Division of the ED50 for side effects (ataxia or myorelaxation) by the ED50 for antagonism of electroshock convulsions was used as a therapeutic index (TI).
(§3) Pearson product moment correlation analysis (Sigma Stat, Jandel Scientific) was used to compare in vitro potencies and in vivo anticonvulsant activity.
Background: In the maximal electroshock model the usual endpoint is tonic extension of the hind limbs.

For data set [3] the following is noted: i.p.; Table 8.
The subject of a further data set is traction reflex in mice. As to the kind of experiment: Traction reflex test (myorelaxant action). In kind it is in vivo. Conditions: i.p., Table 8. How it is done:
as §1
as §2, with “(TI). […]” for “(TI).”

The test system of data set [4] is rotarod performance in mice. As to the kind of experiment: Rotarod test (motor coordination, ataxia). In kind it is in vivo. The note with it: i.p., Table 8. How it is done:
(§4) All compounds were dissolved in 0.9% saline.
as §2, §3
A general note: In the rotarod test animals must keep their balance on a rotating rod.

The test system of the next data set is cortical neurones. The data set is described as follows: Excitotoxicity: glutamate toxicity in cultured cortical neurones (MTT test). The note with it: words. In kind it is cell-based, rat. The method, then:
Cortical neurones were obtained from cerebral cortices of 17/18 day old fetal rats (Wistar), in general following the dissociation procedure described by. After short trypsinization and gentle trituration with fire-polished Pasteur pipettes, the cell suspension was washed by centrifugation. Cells were suspended in serum-free Neurobasal medium with B27 supplement (GIBCO) before plating onto poly-L-lysine (Sigma; 0.2mg/ml, 20 h, 4° C.) and laminin (Sigma; 2 μg/ml, 1h, 37° C.)-coated 96-well plates (Falcon, Primaria) at a density of 5×10^4 cells/well. Cortical neurones were maintained at 37° C. in humidified 10% CO2 /90% air. […]
Exposure to EAA was performed in serum-free Neurobasal medium containing 100 μM glutamate and the drug to be tested. After 20 h of incubation, the cytotoxic effect was morphologically examined under a phase contrast microscope and biochemically quantified by measuring cell viability with the MTT test (Promega). […] These samples were then read using an Elisa plate reader (Thermomax, MWG Biotech) at a wavelength of 570 nm. […]
IC50 s in patch clamp, excitotoxicity, and binding studies were calculated according to the four parameter alogistic equation using the Grafit computer program (Erithacus Software, England). Ki value for binding studies were then determined according to Cheng and Prusoff. […]
Background: Tetrazolium dyes change colour on reduction, which living cells bring about.

Data set [5] is described as follows: Traction reflex test (myorelaxant action). The class given is in vivo. Conditions: mouse, traction reflex versus mes, ip; mice, i.p.; Table 8; read-out: TI Tract. (ED50 traction reflex impairment / ED50 MES). The method, then: as §1
as §2, with “(TI). […]” for “(TI).”

The nature of data set [6]: Rotarod test (motor coordination, ataxia). In kind it is in vivo. Conditions: mouse, rotarod versus mes, ip; mice, i.p.; Table 8; read-out: TI Rot. (ED50 rotarod failure / ED50 MES). The method, then:
as §4, §2, §3

Data set [7] deals with NMDA receptor. The data set is described as follows: [3H]-(+)-MK-801 receptor binding to rat cortical membranes. Conditions: read-out: [3H]MK-801 IC50, [3H]-(+)-MK-801 5 nM, Table 7. How it is done: Male Sprague-Dawley rats (200-250 g) were decapitated and their brains were removed rapidly. The cortex was dissected and homogenized in 20 volumes of ice-cold 0.32 M sucrose using a glass-Teflon homogenizer. The homogenate was centrifuged at 1000×g for 10 minutes. The pellet was discarded and the supernatant centrifuged at 20,000×g for 20 minutes. The resulting pellet was re-suspended in 20 volumes of distilled water and centrifuged for 20 minutes at 8000×g. Then the supernatant and the buffy coat were centrifuged three times (48,000×g for 20 minutes) in the presence of 50 mM Tris-HCl, pH 8.0. All centrifugation steps were carried out at 4° C. After resuspension in 5 volumes of 50 mM Tris-HCl, pH 8.0 the membrane suspension was frozen rapidly at -80° C. On the day of assay the membranes were thawed and washed four times by resuspension in 50 mM Tris-HCl, pH 8.0 and centrifugation at 48,000×g for 20 minutes. The final pellet was suspended in assay buffer. The amount of protein in the final membrane preparation was determined according to the method of Lowry with some modifications. The final protein concentration used for our studies was between 250-500 μg/ml.
Membranes were re-suspended and incubated in 50 mM Tris-HCl, pH 8.0. […] Incubations were terminated using a Millipore filter system. The samples were rinsed three times with 2.5 ml ice cold assay buffer over glass fiber filters obtained from Schleicher & Schuell under a constant vacuum. Filtration was performed as rapidly as possible. Following separation and rinse, the filters were placed into scintillation liquid (5 ml; Ultima Gold) and radioactivity retained on the filters was determined with a conventional liquid scintillation counter (Hewlett Packard, Liquid Scintillation Analyser).
IC50 s in patch clamp, excitotoxicity, and binding studies were calculated according to the four parameter alogistic equation using the Grafit computer program (Erithacus Software, England). Ki value for binding studies were then determined according to Cheng and Prusoff. Binding values presented are means ±SEM of 3-5 determinations (each performed in duplicate).

A short description of data set [8]: Solubility (analytical certificates). In kind it is physicochemical.

These results are taken from patent US6071966A, “1-amino-alkylcyclohexane NMDA receptor antagonists” (Merz + Co. GmbH & Co., priority 1998, dated 2000).

Counter-ions that a name gives are not always drawn. Some results are limits rather than exact numbers.

Consider `NC12CC3CC(CC(C3)C1)C2` [Amantadine, reference compound], for which, in the data set on NMDA receptor [1], the side effects entry was “rarely produce side effects at the therapeutic doses”. Also, in [2], the “MES ED50” value stood at 184.0 mg/kg i.p.
With `C[C@]12N[C@H](Cc3ccccc31)c1ccccc12` [MK-801, (+)-5-methyl-10,11-dihydro-5H-dibenzocyclohepten-5,10-imine maleate, reference compound], the side effects entry in the data set on NMDA receptor [1] is “some psychotropic side effects were apparent at therapeutic doses”. In addition, the “MES ED50” value in data set [2] was found to be 0.16 mg/kg i.p.
As for `CC1(C)CC(C)(C)CC(C)(N2CCCC2)C1.Cl` [MRZ 2/705, N-(1,3,3,5,5-Pentamethylcyclohexyl) pyrrolidine hydrochloride], the “Min Lethality” value in [3] was more than 50 mg/kg. In addition, the “TI Tract. (ED50 traction reflex impairment / ED50 MES)” value in the data set on traction reflex in mice is reported as 3.9. Also, in [4], the “TI Rot. (ED50 rotarod failure / ED50 MES)” value stood at 5.4.
Turning to `CC12CC3CC(C)(C1)CC(N)(C3)C2` [Memantine, reference compound], the “TI Tract. (ED50 traction reflex impairment / ED50 MES)” value in the data set on traction reflex in mice worked out at 2.9. Besides, the side effects result in the data set with NMDA receptor [1] is given as “rarely produce side effects at the therapeutic doses”.
With `CC1(C)CC(C)(C)CC(C)(N)C1` [Mrz 2/579, 1-amino-1,3,3,5,5-pentamethylcyclohexane], the neuroprotection in vitro entry in the data set with cortical neurones is “most potent”. Also, in [3], the “Min Lethality” value stood at 108 mg/kg. Also, the selectivity ratio is 2.9 in [5] and 5 in data set [6].
As for `CCC1(N)CC(C)(C)CC(C)(C)C1` [Mrz 2/600, 1-amino-1-ethyl-3,3,5,5-tetramethylcyclohexane], in data set [3], the “Min Lethality” value is 50 mg/kg. Moreover, the IC50 on NMDA receptor [7] was 24 µM. The selectivity ratio turned out to be 0.6 in [5] and 0.9 in [6].
Regarding `CC1CC(C)CC(C)(N)C1` (centres unmarked) [Mrz 2/616, 1-amino-1,3,5-trimethylcyclohexane], the Solubility entry in data set [8] was “soluble in water, chloroform”. Further, in data set [3], the “Min Lethality” value was more than 50 mg/kg. Besides, on NMDA receptor [7], the IC50 worked out at 150 µM. Further, the selectivity ratio was 1 in [5] and 1.4 in [6].
In the case of `CC1(C)CCCC(C)(N)C1` (centres unmarked) [Mrz 2/621], the “Min Lethality” value in data set [3] is more than 60 mg/kg. Moreover, the “TI Tract. (ED50 traction reflex impairment / ED50 MES)” value in the data set with traction reflex in mice was determined as 1.8. In [4], the “TI Rot. (ED50 rotarod failure / ED50 MES)” value was determined as 1.5. For the same molecule, in data set [2], the “MES ED50” value was determined as 36.9 mg/kg i.p.

As a reminder, the IC50 is the concentration that gives 50% inhibition.
